Test results taken from patent US20230002400A1, “AMORPHOUS FORM OF NITROGEN-CONTAINING TRICYCLIC COMPOUND AND USE THEREOF” (SUNSHINE LAKE PHARMA CO., LTD., priority 2019, published 2023).

Assays:
[1] = Pharmacokinetic test in Beagle dogs, oral capsules; type: in vivo; details: dog, plasma, male Beagle dogs, 5 mg/kg orally
Description: The amorphous form of compound having Formula (I) named 2-((5-cyclopropyl-3-(2,6-di chl orophenyl)i soxazol-4-yl)methoxy)-10H-spiro[b enzo[6,7]oxepino[3,2-b]pyridine-11,1′-cyclopropane]-7-carboxylic acid was filled into capsules, which was for oral administration.
8-12 kg Male Beagle dogs were given 5 mg/kg test sample orally, with 3 animals in each group. Blood was taken at time points of 0.25, 0.5, 1.0, 2.0, 4.0, 6.0, 8.0, 12 and 24 h. Standard curve was plotted based on concentrations of the samples in a suitable range, the concentration of the test sample in the plasma sample was measured and quantified by AB SCIEX API4000 LC-MS/MS at MRM mode. Pharmacokinetic parameters were calculated according to drug concentration -time curve using a noncompartmental model by WinNonLin 6.3 software.

[2] = Stability test: high temperature test (60° C.); type: physicochemical
Description: (1) High temperature test: A batch of the test sample was taken into a flat weighing bottle, divided into ≤5 mm thick thin layer. The sample was placed at 60° C. for 30 days. The sample was then taken on days 5, 10, and 30, and the change of the sample's color was observed. The purity of the sample was detected by HPLC, and the structure of the sample was analyzed by X-ray powder diffraction, the change of X-ray powder diffraction in high temperature test was substantially shown in FIG. 4.

[3] = Stability test: high humidity test (25° C., RH 90% ±5%); type: physicochemical; details: for Appearance / Purity (%): High humidity 25° C., RH 90% ±5%
Description: (2) High humidity test: A batch of the test sample was taken into the flat weighing bottle, divided into <5 mm thick thin layer. The sample was placed at 25° C. and RH for 90% ±5% for 30 days. The sample was then taken on days 5, 10, and 30, and the change of the sample's color was observed. The purity of the sample was detected by HPLC, and the structure of the sample was analyzed by X-ray powder diffraction, the change of X-ray powder diffraction in high humidity test was substantially shown in FIG. 5.

[4] = Stability test: light test (light box with UV); type: physicochemical; details: for Appearance / Purity (%): Light (with UV)
Description: (3) Light test: A batch of the test sample was taken into the flat weighing bottle, divided into ≤5 mm thick thin layer. The sample was placed in an opened light box (with UV) at the illuminance 4500±5001x, UV light ≥0.7w/m2 for 30 days. The sample was then taken on days 5, 13, and 30, and the change of the sample's color was observed. The purity of the sample was detected by HPLC, and the structure of the sample was analyzed by X-ray powder diffraction, the change of X-ray powder diffraction in light test was substantially shown in FIG. 6.

[5] = Hygroscopicity test by dynamic moisture adsorption device; type: physicochemical; details: relative humidity of 80%
Description: The description of the hygroscopic feature and the definition of the hygroscopic weight gain (Chinese Pharmacopoeia 2015 edition, Appendix 9103 Guidelines for Drug Hygroscopicity Tests, experimental conditions: 25° C. ±1° C., 80% ±2% relative humidity) are as described in the table below.
An appropriate amount of the test sample was taken and the hygroscopicity of the test sample was tested by dynamic moisture adsorption device. […] That is, the amorphous form of the invention is not easily deliquescent under the influence of high humidity.

## O=C(O)c1ccc2c(c1)Oc1ccc(OCc3c(-c4c(Cl)cccc4Cl)noc3C3CC3)nc1C1(CC1)C2 [The amorphous form, 2-((5-cyclopropyl-3-(2,6-dichlorophenyl)isoxazol-4-yl)methoxy)-10H-spiro[benzo[6,7]oxepino[3,2-b]pyridine-11,1′-cyclopropane]-7-carboxylic acid]
[1]
  AUC(0-t): 765 ng·h/mL
  Cmax: 268 ng/mL
  Tmax: 2 h
[2]; 0 Day (start of stability test)
  Appearance: White
[2]; 0 Day (start of stability test), HPLC
  Purity (%): 99.66%
[2]; High temperature 60° C., 5 Days
  Appearance: White
[2]; High temperature 60° C., 5 Days, HPLC
  Purity (%): 99.65%
[2]; High temperature 60° C., 10 Days
  Appearance: White
[2]; High temperature 60° C., 10 Days, HPLC
  Purity (%): 99.48%
[2]; High temperature 60° C., 30 Days
  Appearance: White
[2]; High temperature 60° C., 30 Days, HPLC
  Purity (%): 99.60%
[2]; high temperature, up to 30 days, HPLC, XRPD
  changes of appearance, chemical purity and crystal form: no obvious changes
[3]; 5 Days
  Appearance: White
[3]; 5 Days, HPLC
  Purity (%): 99.64%
[3]; 10 Days
  Appearance: White
[3]; 10 Days, HPLC
  Purity (%): 99.61%
[3]; 30 Days
  Appearance: White
[3]; 30 Days, HPLC
  Purity (%): 99.63%
[3]; high humidity, up to 30 days, HPLC, XRPD
  changes of appearance, chemical purity and crystal form: no obvious changes
[4]; 5 Days
  Appearance: White
[4]; 5 Days, HPLC
  Purity (%): 99.62%
[4]; 13 days
  Appearance: White
[4]; 13 days, HPLC
  Purity (%): 99.63%
[4]; 30 days
  Appearance: White
[4]; 30 days, HPLC
  Purity (%): 99.57%
[4]; light, up to 30 days, HPLC, XRPD
  changes of appearance, chemical purity and crystal form: no obvious changes
[5]; after equilibrium
  hygroscopic weight gain: less than 2%
[5]; criterion for the hygroscopic weight gain
  hygroscopic feature: slightly hygroscopic
